Laboratory results taken from patent US9884859B2, “Solid form of pyrazolopyridine compound” (SUNSHINE LAKE PHARMA CO., LTD., priority 2013, dated 2018).

Tests used:
[1] = Stability (acceleration) test of crystalline forms, purity by HPLC; assay type: physicochemical; details: for change of appearance, related substance and crystalline form: 30 days; for Overall impurity (%) / impurity A (%) / impurity B (%) / purity (%): HPLC; for appearance: cell wraps ('powder' on next line)
[2] = Hygroscopicity test (Chinese Pharmacopoeia 2010, weight gain by sorption); assay type: physicochemical; details: 25° C.±1° C., about 24 h; for Result (hygroscopic properties): cell wraps: 'Low hygroscopic'; for Weight gain by absorption (%): constant humidity (saturated ammonium chloride or ammonium sulfate)
Description: Hygroscopicity Test of Crystalline Form I and Form III of the Compound of Formula (I) 1 Instrument and Regents 1.1 Instrument: 1/100000 Scale, XP205DR 1.2 Test Method According to “Chinese Pharmacopoeia”2010 edition, proportion II, XI X J. 1) Keep a dry glass weighing bottle with stopper (external diameter: 50 mm, height: 15 mm) in 25° C.±1° C. of thermostatic drier with saturated solution of ammonium chloride or ammonium sulfate placing on the bottom, precisely weighed (m1). 2) An appropriate amount of sample was spread in the weighing bottle by a millimeter thick, precisely weighed (m2). 3) An open weighing bottle and lid were kept together in environment of constant temperature and humidity for about 24 h.

[3] = day 0, cell wraps: shows characteristic peaks of the crystalline form
[4] = day 30, 40° C.±2° C./75% RH±5%, Yes = shows characteristic peaks of the crystalline form

stability ([1]; 40° C.±2° C./75% RH±5%)	change of appearance, related substance and crystalline form ([1]; 40° C.±2° C./75% RH±5%)	Overall impurity (%) ([1]; day 0, 40° C.±2° C./75% RH±5%)	impurity A (%) ([1]; day 0, 40° C.±2° C./75% RH±5%)	impurity B (%) ([1]; day 0, 40° C.±2° C./75% RH±5%)	purity (%) ([1]; day 0, 40° C.±2° C./75% RH±5%)	appearance ([1]; day 0, 40° C.±2° C./75% RH±5%)	DSC [1, 3]	XRD [1, 3]	Overall impurity (%) ([1]; day 30, 40° C.±2° C./75% RH±5%)	impurity A (%) ([1]; day 30, 40° C.±2° C./75% RH±5%)	impurity B (%) ([1]; day 30, 40° C.±2° C./75% RH±5%)	purity (%) ([1]; day 30, 40° C.±2° C./75% RH±5%)	DSC [1, 4]	XRD [1, 4]	appearance ([1]; day 30, 40° C.±2° C./75% RH±5%)	Result (hygroscopic properties) [2]	Weight gain by absorption (%) [2]	SMILES
stable for a month	did not change	0.65%	0.05%	0.35%	99.4%	pale yellow	Show	Show	0.57%	0.04%	0.34%	99.4%	Yes	Yes	pale yellow	Low	0.04%	COC(=O)N(C)c1c(N)nc(-c2nn(Cc3ccccc3F)c3ncccc23)nc1N [crystalline form III, methyl {4,6-diamino-2-[1-(2-fluorobenzyl)-1H-pyrazolo[3,4-B]pyridine-3-yl]pyrimidine-5-yl}N-methylcarbamate]
stable for a month	did not change	0.44%	0.06%	0.26%	99.6%	Off-white	Shows	Shows	0.43%	0.06%	0.26%	99.6%	Yes	Yes	Off-white	Low	0.1%	COC(=O)N(C)c1c(N)nc(-c2nn(Cc3ccccc3F)c3ncccc23)nc1N [crystalline form I, methyl {4,6-diamino-2-[1-(2-fluorobenzyl)-1H-pyrazolo[3,4-B]pyridine-3-yl]pyrimidine-5-yl}N-methylcarbamate]
